Laboratory results: paper PMC9104950, “Stereoselective Covalent Adduct Formation of Acyl Glucuronide Metabolite of Nonsteroidal Anti-Inflammatory Drugs with UDP-Glucuronosyltransferase” (International Journal of Molecular Sciences, 2022)

Columns and labels:
[1] = test system: proteins of Nuc (nuclear fraction of liver homogenate); experiment: Covalent adduct formation of NSAIDs-AG with proteins of nuclear fraction (Nuc); assay type: binding, rat; conditions: 180 μM, 1 mg/mL, 6 h
[2] = parameters: method as in PMID 1642643; conditions: plasma at physiological pH and temperature; cited from earlier work
[3] = test system: proteins of Mit (mitochondrial fraction of liver homogenate); experiment: Covalent adduct formation of NSAIDs-AG with proteins of mitochondrial fraction (Mit); assay type: binding, rat; conditions: 180 μM, 1 mg/mL, 6 h
[4] = parameters: method as in PMID 9571227; conditions: cited from earlier work
UGT2B7 = target: T1, UGT2B7 (Homo sapiens, UniProt P16662); experiment: Covalent adduct formation of NSAIDs-AG with UGT2B7; assay type: binding; conditions: 180 μM, UGT 3.4 μM, 6 h
T1 construct: purchased Corning, Inc
T1 sequence (P16662 24-529): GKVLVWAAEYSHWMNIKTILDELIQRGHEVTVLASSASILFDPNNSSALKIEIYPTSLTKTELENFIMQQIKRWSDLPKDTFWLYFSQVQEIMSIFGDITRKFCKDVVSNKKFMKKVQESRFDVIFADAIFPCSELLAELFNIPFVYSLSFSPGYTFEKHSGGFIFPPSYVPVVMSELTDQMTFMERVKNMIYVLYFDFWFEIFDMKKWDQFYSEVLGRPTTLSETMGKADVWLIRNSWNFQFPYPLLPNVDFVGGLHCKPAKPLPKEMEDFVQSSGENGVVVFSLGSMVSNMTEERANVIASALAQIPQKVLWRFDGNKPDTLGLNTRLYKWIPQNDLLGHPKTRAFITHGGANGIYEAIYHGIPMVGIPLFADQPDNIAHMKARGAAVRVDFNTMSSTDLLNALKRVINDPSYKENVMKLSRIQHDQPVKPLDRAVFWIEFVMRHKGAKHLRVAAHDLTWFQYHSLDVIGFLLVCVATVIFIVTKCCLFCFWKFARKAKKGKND
Protocol: (§1) The concentrations of UGT were set at 3.4 μM by the preliminary experiments on the linearity of covalent adduct formation. The covalent adduct formation of NSAIDs-AG with organelle proteins and UGT was determined according to previous reports on NSAIDs-AG with albumin with some modifications. After a deproteinization of the reaction mixture, methanol/diethyl ether (3:1) was added to the pellet. […] The concentrations of the parent NSAIDs were measured using liquid chromatography-tandem mass spectrometry (LC-MS/MS). Aliquots of 10 μL were injected into the LC-MS/MS system. The LC-MS/MS equipment consisted of an LC system (UltiMate 3000 series, Thermo Fisher Scientific, Inc.) and TSQ Endura Triple Quadrupole Mass Spectrometer with electrospray ionization (Thermo Fisher Scientific, Inc.). Finnigan Xcalibur software (Thermo Fisher Scientific, Inc.) was used for data recording and analysis. Analysis was further performed using a reversed-phase column (COSMOSIL 5C18-MSII, 2.0 mm × 150 mm, 5 μm; Nacalai Tesque, Inc.). The column temperature was set to 40 °C, and the autosampler was maintained at 10 °C. The mobile phase (A; 30% methanol in 8.5 mM ammonium formate and 0.0075% formic acid, and B; 90% methanol in 8.5 mM ammonium formate and 0.0075% formic acid) was pumped at a flow rate of 0.2 mL/min. The initial mobile phase composition was maintained at 30% mobile phase B for 1 min, changed linearly to 90% mobile phase B from 1 to 8 min, maintained for 1 min, returned to 30% mobile phase B from 9 to 10 min, and maintained for 1 min for chromatographic column equilibrium. The MS scan was operated in positive ionization mode for DIC, MEF, ZOM, KET, and NAP, or negative ionization mode, for FLU. The conditions for electrospray ionization were set at 3500 V spray voltage for positive ionization mode and 2500 V spray voltage for negative ionization mode at 400 °C capillary temperature, and 300 °C vaporizer temperature with 40 arbitrary units of nitrogen sheath gas and 10 arbitrary units of auxiliary gas. The MS scan was operated in the positive or negative ionization mode. The selected reaction monitoring (SRM) mode was used, with argon as the collision gas at 1.5 mTorr. The mass resolution was set at 0.7 full-width at half-height (unit resolution). SRM transitions (precursor and product ions) were mass to charge ratios of (m/z) 296 > 214 for DIC (positive ionization mode), 294 > 250 for DIC (negative ionization mode), 242 > 224 for MEF, 292 > 139 for ZOM, 243 > 198 for R- and S-FLU, 255 > 209 for R- and S-KET, 231 > 185 for R- and S-NAP, and 302 > 220 for DIC-d4. The collision energies were 15 V for DIC (negative ionization mode), ZOM, MEF, FLU, KET, and NAP; 35 V for DIC (positive ionization mode); and DIC-d4. The concentrations of NSAIDs were determined from a single-point calibration in every assay for NSAIDs after confirmation of linearity between area and concentrations of NSAIDs.

[5] = test system: proteins of Cyt (cytosolic fraction of liver homogenate); experiment: Covalent adduct formation of NSAIDs-AG with proteins of cytosolic fraction (Cyt); assay type: binding, rat; conditions: 180 μM, 1 mg/mL, 6 h
UGT2B4 = target: T2, UGT2B4 (Homo sapiens, UniProt P06133); experiment: Covalent adduct formation of NSAIDs-AG with UGT2B4; assay type: binding; conditions: 180 μM, UGT 3.4 μM, 6 h
T2 construct: purchased Corning, Inc
T2 sequence (P06133 24-528): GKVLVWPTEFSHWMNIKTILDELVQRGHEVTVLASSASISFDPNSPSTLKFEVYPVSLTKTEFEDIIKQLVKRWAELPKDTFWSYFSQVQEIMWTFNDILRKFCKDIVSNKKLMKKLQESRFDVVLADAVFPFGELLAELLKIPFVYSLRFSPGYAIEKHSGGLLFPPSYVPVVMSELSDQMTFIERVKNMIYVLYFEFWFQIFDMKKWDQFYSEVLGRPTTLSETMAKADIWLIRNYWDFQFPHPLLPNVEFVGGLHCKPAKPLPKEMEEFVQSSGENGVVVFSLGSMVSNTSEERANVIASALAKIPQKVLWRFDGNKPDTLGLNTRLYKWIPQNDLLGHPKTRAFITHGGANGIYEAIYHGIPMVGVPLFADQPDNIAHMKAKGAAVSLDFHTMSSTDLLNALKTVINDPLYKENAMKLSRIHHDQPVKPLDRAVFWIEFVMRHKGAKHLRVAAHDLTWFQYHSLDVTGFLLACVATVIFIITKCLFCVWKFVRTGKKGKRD
Protocol: as §1

UGT1A1 = target: T3, UGT1A1 (Homo sapiens, UniProt P22309); experiment: Covalent adduct formation of NSAIDs-AG with UGT1A1; assay type: binding; conditions: R vs S diastereomer; 180 μM, UGT 3.4 μM, 6 h
T3 construct: purchased Corning, Inc
T3 sequence (P22309 26-533): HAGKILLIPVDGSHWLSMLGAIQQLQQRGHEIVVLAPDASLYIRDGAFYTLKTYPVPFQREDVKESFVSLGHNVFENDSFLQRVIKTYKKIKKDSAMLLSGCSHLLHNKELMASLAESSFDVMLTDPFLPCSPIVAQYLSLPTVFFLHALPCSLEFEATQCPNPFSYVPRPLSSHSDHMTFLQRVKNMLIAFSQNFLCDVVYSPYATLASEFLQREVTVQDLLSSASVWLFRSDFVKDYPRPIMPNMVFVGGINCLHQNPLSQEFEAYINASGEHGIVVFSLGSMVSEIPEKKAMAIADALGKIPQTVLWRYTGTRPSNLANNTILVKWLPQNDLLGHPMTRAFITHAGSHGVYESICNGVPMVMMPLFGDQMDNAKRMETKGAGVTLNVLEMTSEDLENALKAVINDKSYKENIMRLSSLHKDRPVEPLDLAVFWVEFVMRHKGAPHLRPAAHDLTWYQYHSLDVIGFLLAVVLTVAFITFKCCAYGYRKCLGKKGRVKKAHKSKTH
Protocol: as §1, with “The conditions for electrospray ionization were set at 3500 V spray voltage for positive ionization mode and 2500 V spray voltage for negative ionization mode at 400 °C capillary temperature, and 300 °C vaporizer temperature with 40 arbitrary units of nitrogen sheath gas and 10 arbitrary units of auxiliary gas. The MS scan was operated in the positive or negative ionization mode. The selected reaction monitoring (SRM) mode was used, with argon as the collision gas at 1.5 mTorr. The mass resolution was set at 0.7 full-width at half-height (unit resolution). SRM transitions (precursor and product ions) were mass to charge ratios of (m/z) 296 > 214 for DIC (positive ionization mode), 294 > 250 for DIC (negative ionization mode), 242 > 224 for MEF, 292 > 139 for ZOM, 243 > 198 for R- and S-FLU, 255 > 209 for R- and S-KET, 231 > 185 for R- and S-NAP, and 302 > 220 for DIC-d4. The collision energies were 15 V for DIC (negative ionization mode), ZOM, MEF, FLU, KET, and NAP; 35 V for DIC (positive ionization mode); and DIC-d4.” left out

In the case of `CC(C(=O)OC1OC(C(=O)O)C(O)C(O)C1O)c1cccc(C(=O)c2ccccc2)c1` (stereo not shown) [R-KET-AG], the “amount of covalent adducts with Nuc proteins compared with the other diastereomer (S-KET-AG)” value [1] is given as “higher amounts of covalent adducts”, the “hydrolysis half-life in plasma compared with S-KET-AG” value [2] is given as “shorter” and the “amount of covalent adducts with Mit proteins compared with the other diastereomer (S-KET-AG)” value [3] is given as “higher amounts of covalent adducts”. For the same compound, the “acyl migration rate compared with S-KET-AG” value [4] was “higher acyl migration rate”, the “amounts of covalent adducts with UGT2B (UGT2B7) relative to UGT1A isoforms” value (UGT2B7) was “relatively higher amounts of covalent adducts” and the “covalent adduct formation with UGT2B7 compared with the other diastereomer” value (UGT2B7; R vs S diastereomer) was “significantly more covalent adducts”. The “amount of covalent adducts with Cyt proteins compared with the other diastereomer (S-KET-AG)” value [5] was “higher amounts of covalent adducts”, the “amounts of covalent adducts with UGT2B (UGT2B4) relative to UGT1A isoforms” value (UGT2B4) was “relatively higher amounts of covalent adducts” and the “covalent adduct formation with UGT2B4 compared with the other diastereomer” value (UGT2B4; R vs S diastereomer) was “significantly more covalent adducts”. For the same compound, the “covalent adduct formation with UGT1A1 compared with the other diastereomer” value (UGT1A1) was “significantly more covalent adducts”.
